The values below are quoted from earlier work in patent US20260069551A1, “Patch for treating demyelinating diseases” (Johannes Gutenberg-Universität Mainz, priority 2022, published 2026).

This series has as its system injured nerves. Conditions: 10 mg/kg/day, intraperitoneally injected.

Take `Cn1c(=O)c2[nH]cnc2n(C)c1=O` [theophylline, 1,3-dimethyl-7H-purine-2,6-dione]: the “remyelination of injured nerves” value was “significant remyelination”.
